Test results reported in PMC9248008, “Mechanistic Studies of a Skatole-Forming Glycyl Radical Enzyme Suggest Reaction Initiation via Hydrogen Atom Transfer” (Journal of the American Chemical Society, 2022).

Key:
[1] = target: T1, Ou IAD (indoleacetate decarboxylase from Olsenella uli) (Olsenella uli, UniProt E1QXZ2); experiment: inhibition in assays with I3A; format: biochemical; conditions: partial competitive inhibitor versus I3A, not consumed
T1 construct: gene Olsu_0124; purified; glycyl radical installed by Ou IAD-AE with SAM; catalytic Gly853 and Cys500; tags and host only in supplement
T1 sequence (E1QXZ2 entry or part of it): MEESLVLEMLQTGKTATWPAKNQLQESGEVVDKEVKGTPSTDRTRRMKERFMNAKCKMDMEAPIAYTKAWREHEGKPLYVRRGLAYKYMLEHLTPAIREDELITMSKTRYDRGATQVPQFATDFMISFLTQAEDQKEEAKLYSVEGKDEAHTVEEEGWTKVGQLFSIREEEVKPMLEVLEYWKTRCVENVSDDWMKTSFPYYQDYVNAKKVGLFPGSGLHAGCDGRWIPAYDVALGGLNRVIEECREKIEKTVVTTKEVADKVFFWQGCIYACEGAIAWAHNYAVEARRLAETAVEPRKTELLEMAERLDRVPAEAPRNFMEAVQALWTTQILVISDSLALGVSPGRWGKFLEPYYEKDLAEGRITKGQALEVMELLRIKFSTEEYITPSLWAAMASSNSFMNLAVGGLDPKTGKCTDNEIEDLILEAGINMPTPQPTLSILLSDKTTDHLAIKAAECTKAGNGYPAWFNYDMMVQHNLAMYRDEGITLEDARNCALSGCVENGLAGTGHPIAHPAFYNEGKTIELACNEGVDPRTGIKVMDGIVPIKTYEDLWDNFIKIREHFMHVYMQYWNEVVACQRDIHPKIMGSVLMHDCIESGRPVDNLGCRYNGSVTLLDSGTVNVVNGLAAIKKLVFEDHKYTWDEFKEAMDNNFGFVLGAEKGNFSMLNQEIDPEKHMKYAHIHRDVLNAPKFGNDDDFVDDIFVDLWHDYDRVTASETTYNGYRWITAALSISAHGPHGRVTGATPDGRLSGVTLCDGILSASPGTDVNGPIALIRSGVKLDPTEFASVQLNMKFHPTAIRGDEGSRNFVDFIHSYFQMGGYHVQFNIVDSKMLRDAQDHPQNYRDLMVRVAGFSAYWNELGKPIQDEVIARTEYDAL

[2] = target: T2, Cs HPAD (hydroxyphenylacetate decarboxylase) (Clostridium scatologenes, UniProt Q38HX4); experiment: p-cresol formation, deuterium incorporation in D2O; format: biochemical; conditions: mere turnover
T2 construct: gene csdB; glycyl radical enzyme; residues Cys503, Glu505, Glu637; with 4-hydroxyphenylacetate decarboxylase small subunit
T2 sequence (Q38HX3 whole entry): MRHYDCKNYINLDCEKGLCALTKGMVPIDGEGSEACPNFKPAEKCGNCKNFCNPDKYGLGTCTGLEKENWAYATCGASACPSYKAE
T2 sequence (Q38HX4 whole entry): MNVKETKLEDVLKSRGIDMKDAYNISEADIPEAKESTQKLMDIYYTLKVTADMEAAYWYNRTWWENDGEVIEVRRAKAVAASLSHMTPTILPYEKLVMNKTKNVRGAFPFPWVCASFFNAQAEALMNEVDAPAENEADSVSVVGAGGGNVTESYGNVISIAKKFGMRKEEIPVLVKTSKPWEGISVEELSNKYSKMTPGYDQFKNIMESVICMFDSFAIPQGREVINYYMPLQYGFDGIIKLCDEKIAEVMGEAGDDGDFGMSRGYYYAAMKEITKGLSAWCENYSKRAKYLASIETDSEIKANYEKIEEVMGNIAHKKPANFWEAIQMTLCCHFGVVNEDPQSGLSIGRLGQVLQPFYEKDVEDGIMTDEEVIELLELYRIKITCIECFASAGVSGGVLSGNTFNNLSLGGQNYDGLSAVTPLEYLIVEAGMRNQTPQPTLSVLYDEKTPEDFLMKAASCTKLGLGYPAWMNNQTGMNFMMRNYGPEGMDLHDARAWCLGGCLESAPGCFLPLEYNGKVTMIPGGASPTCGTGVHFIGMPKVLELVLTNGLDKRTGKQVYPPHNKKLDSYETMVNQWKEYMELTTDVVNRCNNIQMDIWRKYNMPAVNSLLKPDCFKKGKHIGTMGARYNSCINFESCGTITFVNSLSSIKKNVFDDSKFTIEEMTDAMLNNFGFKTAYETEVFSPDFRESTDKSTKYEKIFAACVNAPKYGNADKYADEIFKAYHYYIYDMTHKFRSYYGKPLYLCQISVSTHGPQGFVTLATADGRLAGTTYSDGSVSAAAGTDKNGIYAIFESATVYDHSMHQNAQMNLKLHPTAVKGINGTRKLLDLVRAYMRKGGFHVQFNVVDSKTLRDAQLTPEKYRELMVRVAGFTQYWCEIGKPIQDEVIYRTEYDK

## CC(C(=O)O)c1c[nH]c2ccccc12 (racemic) [α-Me-I3A]
[1]; racemic
  inhibition in assays with I3A: Both compounds are partial competitive inhibitors in assays with I3A

## O=C(O)Cc1ccc(O)cc1 [HPA, p-hydroxyphenylacetate]
[2]
  p-cresol formation, deuterium incorporation in D2O: When HPA and Cs HPAD were incubated with D2O, only the expected D1-p-cresol

## CC(C)(C(=O)O)c1c[nH]c2ccccc12 [α,α-Me2-I3A]
[1]
  inhibition in assays with I3A: Both compounds are partial competitive inhibitors in assays with I3A
